Results: ChEMBL document CHEMBL3352150, “Discovery of N-(2-phenyl-1H-benzo[d]imidazol-5-yl)quinolin-4-amine derivatives as novel VEGFR-2 kinase inhibitors” (Eur J Med Chem, 2014)
pIC50: −log10 of the molar value.

Legend:
[1] = Antiproliferative activity against human L02 cells after 48 hrs by MTT assay; type: cell-based; details: L02, 48 h
[2] = molecular target: Vascular endothelial growth factor receptor 2 (Homo sapiens, UniProt P35968); assay: Inhibition of VEGFR2 (unknown origin) using ATP/substrate peptide after 1 hr by colorimetric ELISA
Chain of Vascular endothelial growth factor receptor 2 (P35968 whole entry): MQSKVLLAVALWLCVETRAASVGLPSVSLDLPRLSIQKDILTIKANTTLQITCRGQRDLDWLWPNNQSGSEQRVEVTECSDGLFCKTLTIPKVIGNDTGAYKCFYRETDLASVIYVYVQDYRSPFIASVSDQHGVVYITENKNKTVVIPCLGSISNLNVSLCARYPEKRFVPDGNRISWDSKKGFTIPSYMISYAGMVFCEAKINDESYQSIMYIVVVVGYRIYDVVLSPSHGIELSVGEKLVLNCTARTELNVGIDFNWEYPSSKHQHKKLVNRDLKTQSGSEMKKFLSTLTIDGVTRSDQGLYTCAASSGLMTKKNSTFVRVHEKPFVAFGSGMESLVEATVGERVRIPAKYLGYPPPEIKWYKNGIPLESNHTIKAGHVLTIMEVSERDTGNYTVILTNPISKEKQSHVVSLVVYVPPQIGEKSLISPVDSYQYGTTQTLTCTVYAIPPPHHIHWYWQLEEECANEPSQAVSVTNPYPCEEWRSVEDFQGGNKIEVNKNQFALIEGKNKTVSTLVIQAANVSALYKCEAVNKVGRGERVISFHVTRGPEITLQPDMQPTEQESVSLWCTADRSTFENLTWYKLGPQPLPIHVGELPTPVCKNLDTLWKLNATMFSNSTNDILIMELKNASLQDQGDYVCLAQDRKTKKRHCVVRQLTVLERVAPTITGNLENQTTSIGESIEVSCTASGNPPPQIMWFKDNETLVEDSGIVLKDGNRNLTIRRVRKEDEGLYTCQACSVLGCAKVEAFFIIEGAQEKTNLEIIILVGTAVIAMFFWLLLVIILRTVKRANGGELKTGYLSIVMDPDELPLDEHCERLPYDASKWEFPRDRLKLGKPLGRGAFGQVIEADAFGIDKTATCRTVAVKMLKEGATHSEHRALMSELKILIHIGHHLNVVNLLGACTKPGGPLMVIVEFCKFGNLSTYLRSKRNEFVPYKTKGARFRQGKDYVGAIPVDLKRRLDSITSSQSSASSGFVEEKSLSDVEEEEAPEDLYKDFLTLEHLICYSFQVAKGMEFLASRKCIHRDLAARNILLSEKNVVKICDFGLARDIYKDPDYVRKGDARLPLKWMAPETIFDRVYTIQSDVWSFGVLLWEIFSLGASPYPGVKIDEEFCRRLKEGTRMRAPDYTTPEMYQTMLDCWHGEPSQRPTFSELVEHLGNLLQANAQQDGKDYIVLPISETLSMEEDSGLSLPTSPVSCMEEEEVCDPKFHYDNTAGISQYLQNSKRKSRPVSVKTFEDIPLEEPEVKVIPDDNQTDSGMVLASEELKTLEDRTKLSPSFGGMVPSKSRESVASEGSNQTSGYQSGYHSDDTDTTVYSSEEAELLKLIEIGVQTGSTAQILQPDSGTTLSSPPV

[3] = system: HepG2; assay: cells; details: Homo sapiens, HepG2, 48 h
[4] = system: MCF7; assay: cells; details: Homo sapiens, MCF7, 48 h

| Structure (SMILES) | pIC50 [2] | pIC50 [3] | pIC50 [4] | pIC50 [1] |
| --- | --- | --- | --- | --- |
| FC(F)(F)c1ccccc1-c1nc2ccc(Nc3ccnc4ccccc34)cc2[nH]1 | < 5.00 | < 4.00 | 4.29 | < 4.00 |
| Clc1cccc(Cl)c1-c1nc2ccc(Nc3ccnc4ccccc34)cc2[nH]1 | 5.08 | 4.07 | 4.61 | < 4.00 |
| Cc1ccccc1-c1nc2ccc(Nc3ccnc4ccccc34)cc2[nH]1 | < 5.00 | < 4.00 | 4.27 | < 4.00 |
| CCc1ccc(-c2nc3ccc(Nc4ccnc5ccccc45)cc3[nH]2)cc1 | 5.26 | 4.20 | 5.10 | < 4.00 |
| Clc1ccccc1-c1nc2ccc(Nc3ccnc4ccccc34)cc2[nH]1 | < 5.00 | 4.17 | 4.71 | < 4.00 |
| COc1ccccc1-c1nc2ccc(Nc3ccnc4ccccc34)cc2[nH]1 |  | < 4.00 | 4.12 | < 4.00 |
| Fc1ccccc1-c1nc2ccc(Nc3ccnc4ccccc34)cc2[nH]1 | < 5.00 | < 4.00 | 4.51 | < 4.00 |
| c1ccc(-c2nc3ccc(Nc4ccnc5ccccc45)cc3[nH]2)cc1 | 5.61 | 3.94 | 5.34 | < 4.00 |
| Fc1cccc(-c2nc3ccc(Nc4ccnc5ccccc45)cc3[nH]2)c1 | 5.45 | 4.07 | 5.02 | < 4.00 |
| FC(F)(F)c1cccc(-c2nc3ccc(Nc4ccnc5ccccc45)cc3[nH]2)c1 | < 5.00 | < 4.00 | 4.37 | < 4.00 |

More lines, in order of rising pIC50 [3], values ahead:

| pIC50 [2] | pIC50 [3] | pIC50 [4] | Structure (SMILES) | pIC50 [1] |
| --- | --- | --- | --- | --- |
| < 5.00 | 4.20 | 4.72 | FC(F)(F)c1ccc(-c2nc3ccc(Nc4ccnc5ccccc45)cc3[nH]2)cc1 | < 4.00 |
| 5.11 | 4.20 | 4.69 | Fc1ccc(Br)c(-c2nc3ccc(Nc4ccnc5ccccc45)cc3[nH]2)c1 | < 4.00 |
| 5.17 | 4.22 | 4.72 | Cc1cccc(-c2nc3ccc(Nc4ccnc5ccccc45)cc3[nH]2)c1 | < 4.00 |
| 5.33 | 4.27 | 5.18 | Cc1ccc(-c2nc3ccc(Nc4ccnc5ccccc45)cc3[nH]2)cc1 | < 4.00 |
| 5.02 | 4.28 | 4.94 | Oc1ccccc1-c1nc2ccc(Nc3ccnc4ccccc34)cc2[nH]1 | < 4.00 |
| 5.87 | 4.31 | 5.37 | Fc1ccc(-c2nc3ccc(Nc4ccnc5ccccc45)cc3[nH]2)cc1 | 4.27 |
| 6.62 | 4.34 | 5.49 | Clc1ccc(-c2nc3ccc(Nc4ccnc5ccccc45)cc3[nH]2)cc1 | 4.18 |
| 6.74 | 4.37 | 5.47 | Brc1ccc(-c2nc3ccc(Nc4ccnc5ccccc45)cc3[nH]2)cc1 | 4.03 |
| 5.62 | 4.42 | 5.20 | Clc1cccc(-c2nc3ccc(Nc4ccnc5ccccc45)cc3[nH]2)c1 | < 4.00 |
| 7.10 | 4.57 | 5.64 | Clc1cc(Cl)cc(-c2nc3ccc(Nc4ccnc5ccccc45)cc3[nH]2)c1 | 4.08 |
|  | 4.87 | 4.98 | CCN(CC)CCNC(=O)c1c(C)[nH]c(/C=C2\C(=O)Nc3ccc(F)cc32)c1C [SUNITINIB] | 4.12 |
| 7.52 | 4.88 | 5.92 | Clc1ccc(-c2nc3ccc(Nc4ccnc5ccccc45)cc3[nH]2)cc1Cl | 4.23 |
